According to patent publication US11111463B2, “Solid cleansing compositions with taurine and methods thereof” (Colgate-Palmolive Company, priority 2016, dated 2021):

Assay: MTT colorimetric assay, dose response, cell viability
Type: cell-based
Details: human, HaCat cells, untreated = 100
Experimental: An MTT colorimetric assay (HaCat Cells) dose response experiment was conducted to analyze cell viability, or the percentage of cells present after treatment. Particularly, the MTT colorimetric assay was conducted to determine cell viability of the anhydrous 2:1 urea to taurine ionic liquid (2) of Example 1 in comparison to taurine. The HaCat Cells were 60-70% confluent, and a PBS buffer was used for serial volumetric dilutions. The results of the MTT colorimetric assay are summarized in Table 6, and highlight the effectiveness of the ionic liquid form. Cell viability greater than 100% indicates cell growth or proliferation, and cell viability less than 100% indicates cell death.

## NCCS(=O)(=O)O [Taurine, 2-aminoethanesulfonic acid]
Concentration of taurine 0.00001 w/w %
  viability at 1e-05 w/w %: 137%
Concentration of taurine 0.00010 w/w %
  viability at 0.0001 w/w %: 120%
Concentration of taurine 0.00100 w/w %
  viability at 0.001 w/w %: 141%
Concentration of taurine 0.01000 w/w %
  viability at 0.01 w/w %: 147%
Concentration of taurine 0.10000 w/w %
  viability at 0.1 w/w %: 99%
